Test results as given in patent publication US8808743B2, “Benzonatate compositions and methods of use” (priority 2010, dated 2014).

Assay: Simulated gastrointestinal dissolution testing (FloVitro apparatus, USP simulated gastric and intestinal fluids)
Assay type: physicochemical
Conditions: 100 mg dose
Method: The dissolution test used procedures devised by DOW Chemical using their proprietary FloVitro™ dissolution apparatus described in U.S. Pat. No. 6,799,123B2 and in the publication titled “FloVitro™ Technology” published online at:
The system used two different media that were combined during the process. The fluid flow rates were:
Simulated gastric fluid=7.7 ml/min
Simulated intestinal fluid=13.1 ml/mi
Total flow through analyzer=20.8 ml/min
To Cell 1: USP simulated gastric fluid (no pepsin)
To Cell 2: USP simulated intestinal fluid (pH 6.8) (SIF)
The samples tested were: • a) 100 mg dose neat benzonatate • b) 220.48 mg of IRP69H resinate: 87.97 mg benzonatate dose • c) 225.15 mg of IRP64H resinate: 102.21 mg benzonatate dose a) 100 mg Neat Benzonatate

Concentration of Homolog in Effluent Total (0 min): 0.00 mg/L
Concentration of Homolog in Effluent n = 3 (0 min): 0.00 mg/L
Concentration of Homolog in Effluent n = 4 (0 min): 0.00 mg/L
Concentration of Homolog in Effluent n = 5 (0 min): 0.00 mg/L
Concentration of Homolog in Effluent n = 6 (0 min): 0.00 mg/L
Concentration of Homolog in Effluent n = 7 (0 min): 0.00 mg/L
Concentration of Homolog in Effluent n = 8 (0 min): 0.00 mg/L
Concentration of Homolog in Effluent n = 9 (0 min): 0.00 mg/L
Concentration of Homolog in Effluent n = 10 (0 min): 0.00 mg/L
Concentration of Homolog in Effluent n = 11 (0 min): 0.00 mg/L
Concentration of Homolog in Effluent n = 12 (0 min): 0.00 mg/L
Concentration of Homolog in Effluent n = 13 (0 min): 0.00 mg/L
Concentration of Homolog in Effluent n = 14 (0 min): 0.00 mg/L
Concentration of Homolog in Effluent n = 15 (0 min): 0.00 mg/L
Concentration of Homolog in Effluent n = 16 (0 min): 0.00 mg/L
Concentration of Homolog in Effluent n = 17 (0 min): 0.00 mg/L
Concentration of Homolog in Effluent Total (10 min): 13.84 mg/L
Concentration of Homolog in Effluent n = 3 (10 min): 0.04 mg/L
Concentration of Homolog in Effluent n = 4 (10 min): 0.14 mg/L
Concentration of Homolog in Effluent n = 5 (10 min): 0.41 mg/L
Concentration of Homolog in Effluent n = 6 (10 min): 0.85 mg/L
Concentration of Homolog in Effluent n = 7 (10 min): 1.42 mg/L
Concentration of Homolog in Effluent n = 8 (10 min): 1.92 mg/L
Concentration of Homolog in Effluent n = 9 (10 min): 2.14 mg/L
Concentration of Homolog in Effluent n = 10 (10 min): 2.06 mg/L
Concentration of Homolog in Effluent n = 11 (10 min): 1.80 mg/L
Concentration of Homolog in Effluent n = 12 (10 min): 1.26 mg/L
Concentration of Homolog in Effluent n = 13 (10 min): 0.84 mg/L
Concentration of Homolog in Effluent n = 14 (10 min): 0.49 mg/L
Concentration of Homolog in Effluent n = 15 (10 min): 0.27 mg/L
Concentration of Homolog in Effluent n = 16 (10 min): 0.12 mg/L
Concentration of Homolog in Effluent n = 17 (10 min): 0.08 mg/L
Cumul. (cumulative release in effluent) (10 min): 1.44 mg
Concentration of Homolog in Effluent Total (20 min): 28.13 mg/L
Concentration of Homolog in Effluent n = 3 (20 min): 0.07 mg/L
Concentration of Homolog in Effluent n = 4 (20 min): 0.28 mg/L
Concentration of Homolog in Effluent n = 5 (20 min): 0.78 mg/L
Concentration of Homolog in Effluent n = 6 (20 min): 1.73 mg/L
Concentration of Homolog in Effluent n = 7 (20 min): 2.91 mg/L
Concentration of Homolog in Effluent n = 8 (20 min): 3.90 mg/L
Concentration of Homolog in Effluent n = 9 (20 min): 4.38 mg/L
Concentration of Homolog in Effluent n = 10 (20 min): 4.18 mg/L
Concentration of Homolog in Effluent n = 11 (20 min): 3.58 mg/L
Concentration of Homolog in Effluent n = 12 (20 min): 2.65 mg/L
Concentration of Homolog in Effluent n = 13 (20 min): 1.73 mg/L
Concentration of Homolog in Effluent n = 14 (20 min): 1.03 mg/L
Concentration of Homolog in Effluent n = 15 (20 min): 0.55 mg/L
Concentration of Homolog in Effluent n = 16 (20 min): 0.25 mg/L
Concentration of Homolog in Effluent n = 17 (20 min): 0.08 mg/L
Cumul. (cumulative release in effluent) (20 min): 8.00 mg
Concentration of Homolog in Effluent Total (30 min): 34.97 mg/L
Concentration of Homolog in Effluent n = 3 (30 min): 0.08 mg/L
Concentration of Homolog in Effluent n = 4 (30 min): 0.35 mg/L
Concentration of Homolog in Effluent n = 5 (30 min): 0.98 mg/L
Concentration of Homolog in Effluent n = 6 (30 min): 2.10 mg/L
Concentration of Homolog in Effluent n = 7 (30 min): 3.61 mg/L
Concentration of Homolog in Effluent n = 8 (30 min): 4.89 mg/L
Concentration of Homolog in Effluent n = 9 (30 min): 5.47 mg/L
Concentration of Homolog in Effluent n = 10 (30 min): 5.28 mg/L
Concentration of Homolog in Effluent n = 11 (30 min): 4.52 mg/L
Concentration of Homolog in Effluent n = 12 (30 min): 3.29 mg/L
Concentration of Homolog in Effluent n = 13 (30 min): 2.13 mg/L
Concentration of Homolog in Effluent n = 14 (30 min): 1.27 mg/L
Concentration of Homolog in Effluent n = 15 (30 min): 0.63 mg/L
Concentration of Homolog in Effluent n = 16 (30 min): 0.28 mg/L
Concentration of Homolog in Effluent n = 17 (30 min): 0.09 mg/L
Cumul. (cumulative release in effluent) (30 min): 15.52 mg
Concentration of Homolog in Effluent Total (40 min): 37.37 mg/L
Concentration of Homolog in Effluent n = 3 (40 min): 0.09 mg/L
Concentration of Homolog in Effluent n = 4 (40 min): 0.40 mg/L
Concentration of Homolog in Effluent n = 5 (40 min): 1.10 mg/L
Concentration of Homolog in Effluent n = 6 (40 min): 2.27 mg/L
Concentration of Homolog in Effluent n = 7 (40 min): 3.86 mg/L
Concentration of Homolog in Effluent n = 8 (40 min): 5.23 mg/L
Concentration of Homolog in Effluent n = 9 (40 min): 5.81 mg/L
Concentration of Homolog in Effluent n = 10 (40 min): 5.66 mg/L
Concentration of Homolog in Effluent n = 11 (40 min): 4.80 mg/L
Concentration of Homolog in Effluent n = 12 (40 min): 3.47 mg/L
Concentration of Homolog in Effluent n = 13 (40 min): 2.31 mg/L
Concentration of Homolog in Effluent n = 14 (40 min): 1.35 mg/L
Concentration of Homolog in Effluent n = 15 (40 min): 0.67 mg/L
Concentration of Homolog in Effluent n = 16 (40 min): 0.25 mg/L
Concentration of Homolog in Effluent n = 17 (40 min): 0.10 mg/L
Cumul. (cumulative release in effluent) (40 min): 23.20 mg
Concentration of Homolog in Effluent Total (50 min): 36.42 mg/L
Concentration of Homolog in Effluent n = 3 (50 min): 0.11 mg/L
Concentration of Homolog in Effluent n = 4 (50 min): 0.40 mg/L
Concentration of Homolog in Effluent n = 5 (50 min): 1.05 mg/L
Concentration of Homolog in Effluent n = 6 (50 min): 2.18 mg/L
Concentration of Homolog in Effluent n = 7 (50 min): 3.76 mg/L
Concentration of Homolog in Effluent n = 8 (50 min): 5.07 mg/L
Concentration of Homolog in Effluent n = 9 (50 min): 5.67 mg/L
Concentration of Homolog in Effluent n = 10 (50 min): 5.51 mg/L
Concentration of Homolog in Effluent n = 11 (50 min): 4.71 mg/L
Concentration of Homolog in Effluent n = 12 (50 min): 3.42 mg/L
Concentration of Homolog in Effluent n = 13 (50 min): 2.23 mg/L
Concentration of Homolog in Effluent n = 14 (50 min): 1.28 mg/L
Concentration of Homolog in Effluent n = 15 (50 min): 0.67 mg/L
Concentration of Homolog in Effluent n = 16 (50 min): 0.27 mg/L
Concentration of Homolog in Effluent n = 17 (50 min): 0.09 mg/L
Cumul. (cumulative release in effluent) (50 min): 30.53 mg
Concentration of Homolog in Effluent Total (60 min): 34.04 mg/L
Concentration of Homolog in Effluent n = 3 (60 min): 0.07 mg/L
Concentration of Homolog in Effluent n = 4 (60 min): 0.37 mg/L
Concentration of Homolog in Effluent n = 5 (60 min): 0.99 mg/L
Concentration of Homolog in Effluent n = 6 (60 min): 2.07 mg/L
Concentration of Homolog in Effluent n = 7 (60 min): 3.55 mg/L
Concentration of Homolog in Effluent n = 8 (60 min): 4.76 mg/L
Concentration of Homolog in Effluent n = 9 (60 min): 5.36 mg/L
Concentration of Homolog in Effluent n = 10 (60 min): 5.13 mg/L
Concentration of Homolog in Effluent n = 11 (60 min): 4.41 mg/L
Concentration of Homolog in Effluent n = 12 (60 min): 3.17 mg/L
Concentration of Homolog in Effluent n = 13 (60 min): 2.09 mg/L
Concentration of Homolog in Effluent n = 14 (60 min): 1.25 mg/L
Concentration of Homolog in Effluent n = 15 (60 min): 0.56 mg/L
Concentration of Homolog in Effluent n = 16 (60 min): 0.26 mg/L
Concentration of Homolog in Effluent n = 17 (60 min): 0.00 mg/L
Cumul. (cumulative release in effluent) (60 min): 63.41 mg
SMILES: CCCCNc1ccc(C(=O)OCCOCCOCCOCCOCCOCCOCCOCCOCCOC)cc1 [BENZ, benzonatate]
